Earlier results on 5 compounds are cited in US20140363396A1, “ONCE DAILY TREATMENT OF HEPATITIS C WITH RIBAVIRIN AND TARIBAVIRIN” (priority 2012, published 2014).

Structures are written as SMILES.

For data set [1] the following is noted: compared with ribavirin.
A further data set concerns the target T1, HCV NS3/4A protease (Hepatitis C virus genotype 1a, UniProt P27958).
T1 construct: NS3 consists of an N-terminal serine protease domain and a C-terminal helicase domain
The conditions noted are these: R-diastereomer compared with telaprevir.

The conditions of data set [2]: in vivo.
For data set [3] the following is noted: in vivo. This is another data set of the same source.

T1 sequence (P27958 1027-1657 limits assumed): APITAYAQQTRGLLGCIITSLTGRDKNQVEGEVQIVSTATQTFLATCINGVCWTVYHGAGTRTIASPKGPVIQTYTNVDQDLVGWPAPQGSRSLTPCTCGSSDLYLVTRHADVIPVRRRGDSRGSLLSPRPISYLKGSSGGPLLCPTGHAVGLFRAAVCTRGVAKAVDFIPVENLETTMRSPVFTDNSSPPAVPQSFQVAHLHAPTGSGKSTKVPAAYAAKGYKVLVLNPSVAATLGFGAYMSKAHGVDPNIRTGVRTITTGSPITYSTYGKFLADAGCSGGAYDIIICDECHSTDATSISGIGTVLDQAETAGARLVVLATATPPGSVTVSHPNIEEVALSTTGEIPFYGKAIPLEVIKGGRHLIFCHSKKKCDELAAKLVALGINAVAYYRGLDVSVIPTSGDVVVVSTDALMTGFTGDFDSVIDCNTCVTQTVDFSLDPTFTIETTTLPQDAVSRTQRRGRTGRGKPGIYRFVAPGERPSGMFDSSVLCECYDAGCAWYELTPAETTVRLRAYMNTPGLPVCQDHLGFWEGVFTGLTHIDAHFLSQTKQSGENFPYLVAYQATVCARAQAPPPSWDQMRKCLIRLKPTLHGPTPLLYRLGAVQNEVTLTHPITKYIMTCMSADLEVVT
T1 sequence (P27958 1658-1711 partner limits assumed): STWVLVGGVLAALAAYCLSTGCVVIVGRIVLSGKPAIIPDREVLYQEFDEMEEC

For the compound `CC(C)(C)NC(=O)N[C@H](C(=O)N1C[C@H]2[C@@H]([C@H]1C(=O)NC(CC1CCC1)C(=O)C(N)=O)C2(C)C)C(C)(C)C` (stereo partly drawn) [Boceprevir, (1R,5S)—N-[3-Amino-1-(cyclobutylmethyl)-2,3-dioxopropyl]-3-[2(S)-[[[(1,1-dimethylethyl)amino]carbonyl]amino]-3,3-dimethyl-1-oxobutyl]-6,6-dimethyl-3-azabicyclo[3.1.0]hexan-2(S)-carboxamide], the solubility in water result is listed as “slightly soluble”. Moreover, the “solubility in methanol, ethanol and isopropanol” value (methanol, ethanol and isopropanol) is recorded as “freely soluble”.

Turning to `NC(=O)c1ncn([C@H]2O[C@@H](CO)[C@H](O)[C@@H]2O)n1` [Levovirin, 1-β-L-ribofuranosyl-1H-1,2,4-triazole-3-carboxamide], the toxicity entry in data set [1] is on record as “less toxic”.

On to `NC(=O)c1ncn([C@@H]2O[C@H](CO)[C@@H](O)[C@H]2O)n1` [Ribavirin, 1-β-D-ribofuranosyl-1H-1,2,4-triazole-3-carboxamide], for which the solubility in water result was “freely soluble”. Besides, the “solubility in anhydrous alcohol” value (anhydrous alcohol) is “slightly soluble”.

Turning to `CCC[C@@H](NC(=O)[C@@H]1[C@H]2CCC[C@H]2CN1C(=O)[C@@H](NC(=O)[C@@H](NC(=O)c1cnccn1)C1CCCCC1)C(C)(C)C)C(=O)C(=O)NC1CC1` [VRT-127394], the “fold less potent than telaprevir” value on HCV NS3/4A protease was “approximately 30 fold”. The “metabolite of telaprevir in plasma” value in data set [2] is listed as “major metabolite in plasma”.

Turning to `N=C(N)c1ncn([C@@H]2O[C@H](CO)[C@@H](O)[C@H]2O)n1` [taribavirin, 1-β-D-ribofuranosyl-1H-1,2,4-triazole-3-carboxamidine], the anemia result in data set [3] is reported as “significantly less anemia”.
